The target of data set [1] is T1, ileal bile acid active uptake system (Rattus norvegicus, UniProt Q62633).
T1 construct: from tissue; host or cells: whole animal (rat ileum, in vivo)
T1 sequence (Q62633 1-348): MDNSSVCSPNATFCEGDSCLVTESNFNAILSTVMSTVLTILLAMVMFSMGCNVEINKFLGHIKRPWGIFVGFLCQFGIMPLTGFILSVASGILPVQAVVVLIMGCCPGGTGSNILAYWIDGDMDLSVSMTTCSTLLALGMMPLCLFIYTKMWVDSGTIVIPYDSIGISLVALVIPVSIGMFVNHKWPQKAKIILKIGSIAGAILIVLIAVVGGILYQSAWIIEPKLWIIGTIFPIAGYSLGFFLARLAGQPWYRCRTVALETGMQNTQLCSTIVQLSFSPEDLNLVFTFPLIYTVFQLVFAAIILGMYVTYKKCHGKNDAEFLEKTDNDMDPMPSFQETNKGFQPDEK
In words: In vivo inhibition of bile acid reabsorption (75SeHCAT, rat). To be noted: male Spraque-Dawley rats, oral gavage twice daily for two days, fecal 75SeHCAT over 24 hours, n=12 total. The method, then: (I) In vivo Inhibition of Bile Acid Reabsorption
Male Spraque-Dawley rats (CD, Charles River) weighing 220-260 gm were housed in individual cages and fed normal chow. The rats were dosed by oral gavage (1 ml/100 gm body weight) with test compounds as a suspension in 0.5% methylcellulose at 9:00 a.m. and 3:30 p.m. for two days. The control group received 0.5% methylcellose. Two hours after the morning dose on day two, the rats were given a trace amount (1.3 nmoles) of 23,25−^75Se-homocholic acid taurine (^75SeHCAT) in 1.0 ml saline orally. ^75SeHCAT, a synthetic gamma emitting bile acid analog which is absorbed by the ileal bile acid active uptake system similar to taurocholic acid, has been used clinically as a measure of ileal bile acid absorption. Feces were collected over the 24 hours following ^75SeHCAT administration. Fecal content of ^75SeHCAT was determined using a Packard Auto-Gamma 5000 Series gamma-counter. The % inhibition of bile acid reabsorption is calculated as follows: [formula]
The percent of inhibition of bile acid reabsorption in the rat using ^75SeHCAT was used to determine the ED30 (the dose required to give 30% inhibition of bile acid uptake). […]

In another data set the test system is male Spraque-Dawley rats. In words: Percent cholesterol lowering in rats fed a cholesterol-cholic acid enriched diet. The class given is in vivo, rat. To be noted: gavage b.i.d. for 3 days and once on day four, hypercholesterolemic rats, serum lipids four hours after last dose. The procedure:
(II) Percent Cholesterol Lowering in Rats
Hypercholesterolemia was induced in male Spraque-Dawley rats (CD, Charles River weighing 200-300 g) by administration of a diet enriched in cholesterol and cholic acid. The diet was prepared from Wayne Laboratory Lab Blocks ground into meal and mechanically mixed with powdered cholesterol and cholic acid to a final concentration (by weight) of 1% and 0.5%, respectively. Prior to administration of the diet, blood was collected under halothane anesthesia by cardiac puncture to determine baseline lipid levels. Serum was obtained for analysis of total cholesterol (TC), high density lipoprotein cholesterol (HDL-C), and dextran-precipitable lipoprotein-cholesterol (VLDL+LDL). The rats were divided into groups so that each group had similar baseline serum lipid levels. Five days following the initial sampling for serum lipids the rats were fed ab lib the cholesterol-cholic acid enriched diet and compound administration was begun. The compound was administered by gavage as a suspension in 0.5% methylcellulose (1 ml/100 g body weight) b.i.d. at 9:00 a.m. and 3:00 p.m. for 3 days and at 9:00 a.m. on day four. Control animals received 0.5% methylcellulose only. The rats were bleed four hours after the last dose for the determination of serum lipids. All blood collections were done after a 4-h fast. Serum TC concentrations were determined enzymatically using reagents obtained from Seragen Diagnostics (2). Serum HDL-C was determined after selective precipitation of VLDL and LDL with dextran sulfate and magnesium sulfate, with reagents from Seragen (3). HDL-C was determined in the supernatant. VLDL+LDL cholesterol was determined as the difference between total and HDL-C. The following results were obtained for Example 1 and Example A, as defined above.

On to `CCCCC1(CC)CN(c2ccccc2)c2cc(Br)c(O)cc2S(=O)(=O)C1` (stereo not drawn) [Example A, 2,3,4,5-tetrahydro-3-ethyl-3-butyl-5-phenyl-7-bromo-8-hydroxy-1,5-benzothiazepine-1,1-dioxide, reference compound], for which the “ED30 (the dose required to give 30% inhibition of bile acid uptake)” value in data set [1] is given as 0.17 mg/kg. Moreover, the figures for the Percent cholesterol lowering in the data set with male Spraque-Dawley rats (dose 0.03 mg/kg), with male Spraque-Dawley rats (dose 0.1 mg/kg) and in the data set with male Spraque-Dawley rats (dose 0.3 mg/kg) were 14%, 17% and 53%, respectively.

On to `CCCC[C@@]1(CC)CN(c2ccccc2)c2cc(Cl)c(O)cc2S(=O)(=O)C1` [Example 1, (3S)-2,3,4,5-Tetrahydro-3-ethyl-3-butyl-5-phenyl-7-chloro-8-hydroxy-1,5-benzothiazepine-1,1-dioxide], for which the melting point fell in the range of 179.6 to 180.2 °C. The “ED30 (the dose required to give 30% inhibition of bile acid uptake)” value in data set [1] was found to be 0.048 mg/kg. In addition, the Percent cholesterol lowering in the data set with male Spraque-Dawley rats (dose 0.03 mg/kg) was 48%. This compound also gave a Percent cholesterol lowering in the data set with male Spraque-Dawley rats (dose 0.1 mg/kg) of 56%. The compound also displayed a Percent cholesterol lowering with male Spraque-Dawley rats (dose 0.3 mg/kg) of 81%.

As usually defined, the melting point is the temperature, or range, at which the solid turns liquid.

Values taken from patent US6465451B1, “Hypolipidemic benzothiazepine compounds” (SmithKline Beecham Corporation, priority 1998, dated 2002).
